Test results taken from patent US7405305B2 (Eli Lilly and Company, priority 2002, dated 2008).
Where a name gives a salt, the structure may show the parent alone. Read-outs that look alike come from different tables or passages of the source.

Assays:
[1] = biological target: recombinant human GSK-3β (Homo sapiens, UniProt P49841); test: Kinase Inhibition Assay (GSK-3β, 33P phosphoCREB peptide filter assay); assay type: biochemical
Text: An important in vitro test is the ability of the compound to inhibit the activity of the GSK-3β enzyme. This test is done according to a standard protocol. (See Fiol, et al, A Secondary Phosphorylation of CREB^341 at Ser^129 Is Required for the cAMP-Mediated Control of Gene Expression: A Role for Glycogen Synthase Kinase-3 in the Control of Gene Expression, J. Biol. Chem., 269, 32187-32193 (1994)).
The catalysis of the reaction:
(pS)YR+AT^33P→KRREIL(^33pS)RRP(pS)YR [measured]+ADP by GSK-3β is measured in a reaction mixture comprised of the following: 50 mM MOPS (4-morpholinepropanesulfonic acid) pH 7.0; 50 μM phosphoCREB peptide; 50 μM ATP; 0.5 μCi ATP[γ-^33P]; 12.5 mM MgCl2; 0.03% Triton-X; 4% DMSO; and 1 nM recombinant human GSK-3β. The reaction is initiated by the addition of enzyme. The final reaction volume is 100 μL. The reaction is allowed to proceed for 60 minutes at room temperature and is stopped by the addition of 75 μL of 10% phosphoric acid. To capture KRREIL(^33pS)RRP(pS)YR formed in the reaction and to remove unreacted AT^33P, 160 μL of the stopped reaction mixture is transferred to a pre-wetted (0.75% phosphoric acid) phosphocellulose microfiltration plate [Millipore Cat.# MAPH NOB 50] and after 90 minutes incubation on the plate, the stopped reaction mixture is passed through the filter using a Titertek Map Extractor. The filter containing the trapped KRREIL(^33pS)RRP(pS)YR is washed with 220 μL of 0.75% phosphoric acid. Filter plates are blotted to remove droplets from the underdrain. The underdrain is removed from the filter and the filter is placed into a clear plate liner (Wallac, Inc.). Added to each well is 100 μL of Microscint 20 (Packard).
After standing at least six hours (preferably overnight), the plates are counted in a Trilux scintillation counter (Wallac, Inc.). The ability of a compound to inhibit GSK-3β is determined by including various concentrations of the compound in the reaction mixture and comparing the signal produced to the signal produced in a reaction mixture without the compound.
The test yields the molar concentration of the test compound that produces a 50% inhibition of the GSK-3β enzyme activity.

[2] = tested on: 3T3-L1 adipocytes; test: Glycogen Synthesis Assay (14C-glucose incorporation into glycogen); assay type: cell-based; conditions: 1 μM compound
Experimental: This test measures the increase in the production of glycogen both in the absence and in the presence of insulin in the cells. This test is done according to standard protocols. (See Berger and Hayes, A High-Capacity assay for Activators of Glucose Incorporation into Glycogen in L6 Muscle Cells, Analytical Biochemistry, 261, 159-163 (1998).)
Briefly, 3T3-L1 adipocytes are plated and differentiated in a 96-well plate at 25,000 cells/well. The plate is serum-starved overnight. The serum-starvation media is removed just prior to assay, and the plate is washed with 100 μl/well Krebs-Ringer-Hepes buffer (KRBH). The KRBH is removed and 50 μl of compound (twice the amount of the final concentration) is added to the assay plate. Next, 50 μl of ^14C-labeled glucose is added to the assay plate at 0.1 μCi/well. The plate is then incubated at 37° C. for 2 hours.
The plate is washed with 100 μL/well of PBS, and the cells are lysed with 75 μl/well of 1N NaOH. The plate is heated at 70° C. for 20 minutes. An aliquot (50 μl) of the supernatant is transferred from the assay plate to a Millipore FC filter plate containing 120 μl/well of ice-cold ethanol. The plate is allowed to stand for 2 hours at 4° C. to facilitate precipitation. The ethanol is removed from the filter plate via a vacuum manifold, and the plate is washed with 100 μL/well of ice-cold 70% ethanol. The plate was allowed to dry overnight, and 75 μl/well of Microscint-20 was added to the filter plate. The plate was then counted on a Packard Topcount.

[3] = tested on: β-catenin in AG04160C FAD lymphoblast cells; test: β-Catenin Protection Assay; assay type: cell-based, human; conditions: fold induction over basal β-catenin, 24 hours, concentration not given
Experimental: This test measures the fold induction over basal β-catenin and is performed according to standard protocols (Hedgepeth, C. M., Dev. Biol. 185, 82-91 (1997); Chen, G., et al., J. Neurochem., 72, 1327-1330 (1999); Hong, M., et al., J. Biol. Chem., 272, 25326-25332 (1997)).
The human familial Alzheimer's disease (FAD) presenilin-1 AG04160C lymphoblast cell line (Coriell Cell Repository, Camden, N.J.) is maintained as a suspension culture in RPMI 1640 (with L-Glutamine) supplemented with 10% fetal bovine serum and 1% penicillin-streptomycin in an atmosphere of 37° C. and 5% CO2. The AG04160C FAD lymphoblast cells are seeded in T-25 cm^2 flasks at 2.5 to 5.0×10^5 cells/ml in a total volume of 10 ml. Following 16-18 hours of growth, cells are treated with compound at concentrations of 0.1 μM, 1.0 μM, and 10 μM, and are incubated for an additional 24 hours. […] The total protein concentration in whole cell lysate samples is determined using the BCA method (Pierce). […] The β-catenin accumulation/stability is then quantified following densitometry analysis of protein bands. […]

[4] = tested on: ZDF rats; test: Glucose Lowering Assay; assay type: in vivo, rat; conditions: oral gavage once daily, relative to insulin
Experimental: This test measures the effect of the test compound on blood glucose and triglycerides relative to insulin. (See Eldar-Finkleman, et al, Expression and Characterization of Glycogen Synthase Kinase-3 Mutants and Their Effect on Glycogen Synthase Activity in Intact Cells, Proc. Nat. Acad. Sci., 93, 10228-10233 (1996).)
ZDF rats (Charles River, Inc.) at six weeks of age are housed individually with free access to food and water. Rats are dosed with drug once daily by oral gavage, with the compound prepared as a suspension in 1% caboxymethylcellusolve/0.25% Tween 80 (CMC-Tween). Vehicle controls are dosed with CMC-Tween only. The duration of study varied according to the protocol used, with acute dosing studies lasting one day and dose escalation studies lasting seven days. Body weights and food consumption measurements are also performed once a week for seven-day studies. For measurement of blood glucose and triglycerides, blood samples of 600 μl are collected by the tail snip method. (The tail snip for blood sampling is as follows: 1-2 mm of the tail is snipped with a sharp blade. After collection of blood, a scab forms at the site of wound. This scab is removed and the tail is gently massaged for other subsequent bleedings.) Glucose and triglyceride determinations are performed on a Hitachi 912 metabolic analyzer, with a kit utilizing the Trinder method. […]

[5] = Table II, 1 nM recombinant human GSK-3β, 50 μM ATP, 60 minutes at room temperature, read-out: GSK-3β IC50

Chain of recombinant human GSK-3β (P49841 whole entry): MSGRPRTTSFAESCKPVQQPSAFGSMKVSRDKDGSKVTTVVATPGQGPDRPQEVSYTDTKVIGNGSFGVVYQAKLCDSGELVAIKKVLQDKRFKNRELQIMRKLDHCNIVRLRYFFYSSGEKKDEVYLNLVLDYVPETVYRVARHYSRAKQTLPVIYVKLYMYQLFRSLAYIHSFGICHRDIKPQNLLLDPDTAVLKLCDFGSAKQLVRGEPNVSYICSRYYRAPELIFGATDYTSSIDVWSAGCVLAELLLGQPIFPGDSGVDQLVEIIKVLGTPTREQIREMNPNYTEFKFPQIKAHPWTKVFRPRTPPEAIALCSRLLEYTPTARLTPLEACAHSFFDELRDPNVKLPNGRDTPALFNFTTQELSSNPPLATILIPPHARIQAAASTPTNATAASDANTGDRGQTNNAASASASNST

| Structure (SMILES) | IC50 [1, 5] [nM] | other results |
| --- | --- | --- |
| Cn1ccc2c(C3=C(c4cn(CCCO)c5ccccc45)C(=O)NC3=O)cccc21 [Example 1, 3-(1-Methyl-1H-indol-4-yl)-4-[1-(3-hydroxypropyl)-1H-indol-3-yl]pyrrole-2,5-dione] | 176 | – |
| COc1cc(C2=C(c3cn(CCN4CCN(C)CC4)c4ccccc34)C(=O)NC2=O)c2occc2c1 [Example 100, 3-(5-Methoxybenzofur-7-yl)-4-{1-[2-(4-methylpiperazin-1-yl)ethyl]-1H-indol-3-yl}pyrrole-2,5-dione] | – | IC50 [1]: 143 nM |
| CCN(CC)CCCc1cccc2c(C3=C(c4cccc5ccoc45)C(=O)NC3=O)cn(C)c12 [Example 102, 3-(Benzofur-7-yl)-4-[7-(3-diethylaminopropyl)-1-methyl-1H-indol-3-yl]pyrrole-2,5-dione] | 125 | – |
| CCN(CC)CCCOc1ccc2c(c1)c(C1=C(c3cc(F)cc4ccoc34)C(=O)NC1=O)cn2C(C)C [Example 114, 3-(5-Fluorobenzofur-7-yl)-4-[5-(3-diethylaminopropoxy)-1-isopropyl-1H-indol-3-yl]pyrrole-2,5-dione hydrochloride] | 133 | – |
| COc1ccc(C2=C(c3cn(CCCCN(C)C)c4ccccc34)C(=O)NC2=O)c2occc12 [Example 118] | 70.2 | – |
| Cl.Cn1cc(C2=C(c3cccc4ccoc34)C(=O)NC2=O)c2cc(OCCNCC3CC3)ccc21 [Example 119, 3-(Benzofur-7-yl)-4-{5-[2-(cyclopropylmethylamino)ethoxy]-1-methyl-1H-indol-3-yl}pyrrole-2,5-dione hydrochloride] | 9.5 | Glycogen Synthesis (fold increase at 1 μM) in absence of insulin [2]: 2.82× in absence of fold; Glycogen Synthesis (fold increase at 1 μM) in presence of insulin [2]: 2.13× in presence of fold; β-Catenin (fold increase) [3]: 4.9× fold |

Continued, in another order:

| IC50 [1, 5] [nM] | Structure (SMILES) | other results |
| --- | --- | --- |
| 55.2 | Cn1cc(C2=C(c3ccc(O)c4ccoc34)C(=O)NC2=O)c2ccccc21 [Example 135, 3-(4-Hydroxybenzofur-7-yl)-4-(1-methyl-1H-indol-3-yl)pyrrole-2,5-dione] | – |
| 5.74 | O=C1NC(=O)C(c2cccc3ccoc23)=C1c1cn(C2CCNCC2)c2ccccc12 [Example 139, 3-(Benzofur-7-yl)-4-[1-(piperidin-4-yl)-1H-indol-3-yl]pyrrole-2,5-dione] | – |
| 10.6 | CC(C)CN[C@H]1CC[C@H](n2cc(C3=C(c4cccc5ccoc45)C(=O)NC3=O)c3c(F)cccc32)CC1 [Example 150, 3-(Benzofur-7-yl)-4-[4-fluoro-1-(4-trans-isobutylaminocyclohexyl)-1H-indol-3-yl]pyrrole-2,5-dione hydrochloride] | Glycogen Synthesis (fold increase at 1 μM) in absence of insulin [2]: 2.97× in absence of fold; Glycogen Synthesis (fold increase at 1 μM) in presence of insulin [2]: 3.92× in presence of fold; Glucose Lowering (percent increase vs. effect of insulin) [4]: 58% |
